Assays:
piscidin 1 (P1) = piscidin 1 (P1) (Morone saxatilis, UniProt Q8UUG0); assay: circular dichroism titration at […] nm, one-site two-state fit; assay type: binding
piscidin 3 (P3) = piscidin 3 (P3) (Morone chrysops x Morone saxatilis, UniProt P0C006); assay: as above; assay type: binding
Sequence of piscidin 3 (P3) (P0C006 whole entry): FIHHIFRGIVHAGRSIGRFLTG

Sequence of piscidin 1 (P1) (Q8UUG0 23-44): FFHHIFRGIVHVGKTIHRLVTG

Kd (piscidin 1 (P1)): 206 ± 5 µM
Kd (piscidin 3 (P3)): 391.5 ± 1.5 µM
Compound: CCCCCCOC(=O)CCCCCCC/C=C\CCCCCC[C@H](C)O[C@@H]1O[C@H](CO)[C@@H](O)[C@H](O)[C@H]1O[C@@H]1O[C@H](CO)[C@@H](O)[C@H](O)[C@H]1O [SL-HE]

— PMC10751773 (JACS Au, 2023)
